In PubChem BioAssay AID248 (DTP/NCI, 2004):
Where “and” joins values, the source holds several entries; their conditions need not be identical. Equal entries are not always repeated. Toxic doses and inconclusive results are not listed.

Tested on: L1210 leukemia ip in BDF1 mice, survival T/C
Assay: NCI In Vivo Anticancer Drug Screen. Data for tumor model L1210 Leukemia (intraperitoneal) in B6D2F1 (BDF1) mice
Settings: higher = longer survival
Summary of the method: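 In this screen, tumor-bearing mice given compound are compared to those given vehicle, and their survival values are reported as a treated-to-control quotient.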

C[C@H](N)C(=O)N[C@@H]1[C@H]2C(=C(O)C[C@@H](O)[C@@H]2O)C(=O)O[C@@H]1C
T/C (endpoint: mean survival time, dose: 16.0 mg/kg/injection, schedule: Q01DX Z (ip), vehicle: carboxymethylcellulose (CMC)): 100 % of control
T/C (endpoint: mean survival time, dose: 31.0 mg/kg/injection, schedule: Q01DX Z (ip), vehicle: carboxymethylcellulose (CMC)): 97 % of control
T/C (endpoint: mean survival time, dose: 37.5 mg/kg/injection, schedule: Q01DX010 (ip), vehicle: saline): 102 % of control and 104 % of control
T/C (endpoint: mean survival time, dose: 50.0 mg/kg/injection, schedule: Q01DX001 (ip), vehicle: saline): 105 % of control
T/C (endpoint: mean survival time, dose: 50.0 mg/kg/injection, schedule: Q#A X Z (ip), vehicle: saline): 120 % of control
T/C (endpoint: mean survival time, dose: 62.0 mg/kg/injection, schedule: Q01DX Z (ip), vehicle: carboxymethylcellulose (CMC)): 112 % of control
T/C (endpoint: mean survival time, dose: 75.0 mg/kg/injection, schedule: Q01DX010 (ip), vehicle: saline): 104 % of control
T/C (endpoint: mean survival time, dose: 88.0 mg/kg/injection, schedule: Q01DX015 (ip), vehicle: saline): 118 % of control
T/C (endpoint: mean survival time, dose: 100.0 mg/kg/injection, schedule: Q01DX001 (ip), vehicle: saline): 104 % of control
T/C (endpoint: mean survival time, dose: 100.0 mg/kg/injection, schedule: Q01DX006 (iv), vehicle: saline): 101 % of control
T/C (endpoint: mean survival time, dose: 100.0 mg/kg/injection, schedule: Q01DX Z (im), vehicle: saline): 98 % of control
T/C (endpoint: mean survival time, dose: 100.0 mg/kg/injection, schedule: Q01DX Z (sc), vehicle: saline): 102 % of control
T/C (endpoint: mean survival time, dose: 125.0 mg/kg/injection, schedule: Q01DX Z (ip), vehicle: carboxymethylcellulose (CMC)): 124 % of control
T/C (endpoint: mean survival time, dose: 125.0 mg/kg/injection, schedule: Q01DX Z (ip), vehicle: saline): 116 % of control
T/C (endpoint: mean survival time, dose: 130.0 mg/kg/injection, schedule: Q01DX015 (ip), vehicle: saline): 114 % of control
T/C (endpoint: mean survival time, dose: 150.0 mg/kg/injection, schedule: Q01DX005 (ip), vehicle: saline): 104 % of control
T/C (endpoint: mean survival time, dose: 150.0 mg/kg/injection, schedule: Q03HX016 (ip), vehicle: saline): 103 % of control
T/C (endpoint: mean survival time, dose: 150.0 mg/kg/injection, schedule: Q08DX002 (ip), vehicle: saline): 116 % of control
T/C (endpoint: mean survival time, dose: 200.0 mg/kg/injection, schedule: Q01DX001 (ip), vehicle: saline): 110 % of control
T/C (endpoint: mean survival time, dose: 200.0 mg/kg/injection, schedule: Q01DX006 (iv), vehicle: saline): 104 % of control
T/C (endpoint: mean survival time, dose: 200.0 mg/kg/injection, schedule: Q01DX015 (ip), vehicle: saline): 120 % of control
T/C (endpoint: mean survival time, dose: 200.0 mg/kg/injection, schedule: Q01DX Z (im), vehicle: saline): 110 % of control
T/C (endpoint: mean survival time, dose: 200.0 mg/kg/injection, schedule: Q01DX Z (sc), vehicle: saline): 116 % of control
T/C (endpoint: mean survival time, dose: 268.0 mg/kg/injection, schedule: Q## X004 (ip), vehicle: saline): 108 % of control
T/C (endpoint: mean survival time, dose: 300.0 mg/kg/injection, schedule: Q01DX001 (sc), vehicle: saline): 96 % of control
T/C (endpoint: mean survival time, dose: 300.0 mg/kg/injection, schedule: Q01DX005 (ip), vehicle: saline): 116 % of control
T/C (endpoint: mean survival time, dose: 300.0 mg/kg/injection, schedule: Q01DX009 (sc), vehicle: saline): 113 % of control
T/C (endpoint: mean survival time, dose: 300.0 mg/kg/injection, schedule: Q01DX Z (ip), vehicle: saline): 160 % of control
T/C (endpoint: mean survival time, dose: 300.0 mg/kg/injection, schedule: Q03HX016 (ip), vehicle: saline): 110 % of control
T/C (endpoint: mean survival time, dose: 300.0 mg/kg/injection, schedule: Q03HX024 (ip), vehicle: saline): 109 % of control
T/C (endpoint: mean survival time, dose: 300.0 mg/kg/injection, schedule: Q04DX003 (ip), vehicle: saline): 119 % of control
T/C (endpoint: mean survival time, dose: 300.0 mg/kg/injection, schedule: Q08DX002 (ip), vehicle: saline): 111 % of control
T/C (endpoint: mean survival time, dose: 320.0 mg/kg/injection, schedule: Q01DX015 (ip), vehicle: saline): 156 % of control and 174 % of control
T/C (endpoint: mean survival time, dose: 333.0 mg/kg/injection, schedule: Q02DX004 (ip), vehicle: saline): 116 % of control
T/C (endpoint: mean survival time, dose: 352.0 mg/kg/injection, schedule: Q## X032 (ip), vehicle: saline): 116 % of control
T/C (endpoint: mean survival time, dose: 400.0 mg/kg/injection, schedule: Q01DX001 (ip), vehicle: saline): 105 % of control
T/C (endpoint: mean survival time, dose: 400.0 mg/kg/injection, schedule: Q01DX006 (iv), vehicle: saline): 113 % of control
T/C (endpoint: mean survival time, dose: 400.0 mg/kg/injection, schedule: Q01DX013 (ip), vehicle: saline): 178 % of control
T/C (endpoint: mean survival time, dose: 400.0 mg/kg/injection, schedule: Q01DX Z (ip), vehicle: saline): 151 % of control
T/C (endpoint: mean survival time, dose: 400.0 mg/kg/injection, schedule: Q01DX Z (oral), vehicle: saline): 104 % of control
T/C (endpoint: mean survival time, dose: 400.0 mg/kg/injection, schedule: Q## X004 (ip), vehicle: saline): 113 % of control
T/C (endpoint: mean survival time, dose: 450.0 mg/kg/injection, schedule: Q01DX015 (ip), vehicle: saline): 155 % of control
T/C (endpoint: mean survival time, dose: 536.0 mg/kg/injection, schedule: Q## X032 (ip), vehicle: saline): 119 % of control and 120 % of control
T/C (endpoint: mean survival time, dose: 600.0 mg/kg/injection, schedule: Q01DX001 (sc), vehicle: saline): 105 % of control
T/C (endpoint: mean survival time, dose: 600.0 mg/kg/injection, schedule: Q01DX005 (ip), vehicle: saline): 118 % of control
T/C (endpoint: mean survival time, dose: 600.0 mg/kg/injection, schedule: Q01DX009 (sc), vehicle: saline): 119 % of control
T/C (endpoint: mean survival time, dose: 600.0 mg/kg/injection, schedule: Q03HX016 (ip), vehicle: saline): 110 % of control
T/C (endpoint: mean survival time, dose: 600.0 mg/kg/injection, schedule: Q03HX024 (ip), vehicle: saline): 115 % of control
T/C (endpoint: mean survival time, dose: 600.0 mg/kg/injection, schedule: Q04DX003 (ip), vehicle: saline): 119 % of control
T/C (endpoint: mean survival time, dose: 600.0 mg/kg/injection, schedule: Q08DX002 (ip), vehicle: saline): 113 % of control
T/C (endpoint: mean survival time, dose: 600.0 mg/kg/injection, schedule: Q## X004 (ip), vehicle: saline): 111 % of control
T/C (endpoint: mean survival time, dose: 656.0 mg/kg/injection, schedule: Q01DX015 (ip), vehicle: carboxymethylcellulose (CMC)): 162 % of control
T/C (endpoint: mean survival time, dose: 700.0 mg/kg/injection, schedule: Q01DX001 (ip), vehicle: saline): 110 % of control and 117 % of control
T/C (endpoint: mean survival time, dose: 700.0 mg/kg/injection, schedule: Q07DX Z (ip), vehicle: saline): 114 % of control
T/C (endpoint: mean survival time, dose: 800.0 mg/kg/injection, schedule: Q01DX Z (im), vehicle: saline): 176 % of control
T/C (endpoint: mean survival time, dose: 800.0 mg/kg/injection, schedule: Q01DX Z (oral), vehicle: saline): 108 % of control
T/C (endpoint: mean survival time, dose: 800.0 mg/kg/injection, schedule: Q01DX Z (sc), vehicle: saline): 174 % of control
T/C (endpoint: mean survival time, dose: 800.0 mg/kg/injection, schedule: Q## X032 (ip), vehicle: saline): 117 % of control
T/C (endpoint: mean survival time, dose: 900.0 mg/kg/injection, schedule: Q## X004 (ip), vehicle: saline): 122 % of control
T/C (endpoint: mean survival time, dose: 1084.0 mg/kg/injection, schedule: Q01DX001 (ip), vehicle: saline): 94 % of control and 95 % of control
T/C (endpoint: mean survival time, dose: 1200.0 mg/kg/injection, schedule: Q01DX001 (sc), vehicle: saline): 101 % of control
T/C (endpoint: mean survival time, dose: 1200.0 mg/kg/injection, schedule: Q03HX016 (ip), vehicle: saline): 111 % of control
T/C (endpoint: mean survival time, dose: 1200.0 mg/kg/injection, schedule: Q## X032 (ip), vehicle: saline): 120 % of control and 121 % of control
T/C (endpoint: mean survival time, dose: 1300.0 mg/kg/injection, schedule: Q01DX001 (ip), vehicle: saline): 106 % of control
T/C (endpoint: mean survival time, dose: 1350.0 mg/kg/injection, schedule: Q## X004 (ip), vehicle: saline): 122 % of control
T/C (endpoint: mean survival time, dose: 1400.0 mg/kg/injection, schedule: Q01DX001 (ip), vehicle: saline): 106 % of control and 119 % of control
T/C (endpoint: mean survival time, dose: 1400.0 mg/kg/injection, schedule: Q07DX Z (ip), vehicle: saline): 120 % of control
T/C (endpoint: mean survival time, dose: 1491.0 mg/kg/injection, schedule: Q01DX015 (ip), vehicle: carboxymethylcellulose (CMC)): 155 % of control
T/C (endpoint: mean survival time, dose: 1600.0 mg/kg/injection, schedule: Q01DX Z (im), vehicle: saline): 160 % of control
T/C (endpoint: mean survival time, dose: 1600.0 mg/kg/injection, schedule: Q01DX Z (oral), vehicle: saline): 106 % of control
T/C (endpoint: mean survival time, dose: 1650.0 mg/kg/injection, schedule: Q01DX001 (ip), vehicle: saline): 96 % of control and 97 % of control
T/C (endpoint: mean survival time, dose: 1687.0 mg/kg/injection, schedule: Q02DX004 (ip), vehicle: saline): 166 % of control
T/C (endpoint: mean survival time, dose: 2000.0 mg/kg/injection, schedule: Q01DX001 (ip), vehicle: saline): 120 % of control
T/C (endpoint: mean survival time, dose: 2024.0 mg/kg/injection, schedule: Q01DX001 (ip), vehicle: saline): 115 % of control
T/C (endpoint: mean survival time, dose: 2237.0 mg/kg/injection, schedule: Q01DX015 (ip), vehicle: carboxymethylcellulose (CMC)): 108 % of control
T/C (endpoint: mean survival time, dose: 2400.0 mg/kg/injection, schedule: Q01DX001 (sc), vehicle: saline): 104 % of control
T/C (endpoint: mean survival time, dose: 2400.0 mg/kg/injection, schedule: Q03HX016 (ip), vehicle: saline): 119 % of control
T/C (endpoint: mean survival time, dose: 2400.0 mg/kg/injection, schedule: Q08DX002 (ip), vehicle: saline): 122 % of control
T/C (endpoint: mean survival time, dose: 2464.0 mg/kg/injection, schedule: Q01DX001 (ip), vehicle: saline): 100 % of control
T/C (endpoint: mean survival time, dose: 2800.0 mg/kg/injection, schedule: Q01DX001 (ip), vehicle: saline): 123 % of control
T/C (endpoint: mean survival time, dose: 2800.0 mg/kg/injection, schedule: Q07DX Z (ip), vehicle: saline): 119 % of control
T/C (endpoint: mean survival time, dose: 3000.0 mg/kg/injection, schedule: Q01DX001 (ip), vehicle: saline): 115 % of control
T/C (endpoint: mean survival time, dose: 3200.0 mg/kg/injection, schedule: Q01DX Z (oral), vehicle: saline): 108 % of control
T/C (endpoint: median survival time, dose: 75.0 mg/kg/injection, schedule: Q01DX009 (ip), vehicle: saline): 113 % of control
T/C (endpoint: median survival time, dose: 133.0 mg/kg/injection, schedule: Q04DX003 (ip), vehicle: saline): 97 % of control
T/C (endpoint: median survival time, dose: 266.0 mg/kg/injection, schedule: Q04DX003 (ip), vehicle: saline): 101 % of control
T/C (endpoint: median survival time, dose: 532.0 mg/kg/injection, schedule: Q04DX003 (ip), vehicle: saline): 110 % of control
T/C (endpoint: median survival time, dose: 600.0 mg/kg/injection, schedule: Q01DX009 (ip), vehicle: saline): 160 % of control
T/C (endpoint: median survival time, dose: 1200.0 mg/kg/injection, schedule: Q01DX009 (ip), vehicle: saline): 180 % of control
